Laboratory results reported in patent US20100069407A1, “CXCR2 inhibitors” (priority 2006, published 2010).

Molecular target: T1, human CXCR2 receptor (Homo sapiens, UniProt P25025)
T1 construct: purchased Biosignal Packard Inc; host or cells: Chinese hamster ovary cell (CHO-K1) membranes
T1 sequence (P25025 1-360): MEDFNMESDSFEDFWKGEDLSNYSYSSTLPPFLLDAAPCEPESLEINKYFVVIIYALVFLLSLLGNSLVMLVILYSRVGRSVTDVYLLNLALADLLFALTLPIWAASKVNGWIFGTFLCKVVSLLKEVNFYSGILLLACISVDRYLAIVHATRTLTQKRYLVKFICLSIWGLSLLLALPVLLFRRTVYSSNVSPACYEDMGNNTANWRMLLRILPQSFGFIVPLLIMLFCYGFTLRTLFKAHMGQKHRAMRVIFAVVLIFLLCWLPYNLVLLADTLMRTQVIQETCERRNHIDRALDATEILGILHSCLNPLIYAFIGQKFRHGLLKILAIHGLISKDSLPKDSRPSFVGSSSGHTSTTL
Assay: [35S]-GTPγS binding assay for human CXCR2 receptor using SPA technology
Type: biochemical
Conditions: CHO-K1 membranes expressing human CXCR2; 100 nM IL-8 stimulation
Experimental: The assay is performed in duplicate in 96 well Optiplate™ microplate in a final volume of 250 μl per well. Compounds are diluted in DMSO (0.5% final concentration) and incubated in 20 mM HEPES buffer pH 7.4 containing 10 mM MgCl2, 100 mM NaCl, 1 mM EDTA plus 100 nM IL-8, 50 μM GDP and 500 μM [^35S]GTPγS per well. SPA beads (1 mg/well final concentration) were pre-mixed with the membranes (10 μg/well final concentration) in assay buffer: 20 mM HEPES buffer pH 7.4 containing 10 mM MgCl2, 100 mM NaCl, 1 mM EDTA. The bead membrane mixture is added to each well, plates are sealed and incubated at room temperature for 60 minutes. The plate is centrifuged and read on Packard TopCount™ scintillation counter, program [^35S dpm] for 1 min/well. Data are expressed as the % response to 100 nM IL-8 minus basal.

IC50: 2400 nM
SMILES: CCc1nc2nc(CSc3cccc(F)c3F)cc(O)n2n1 [Example 4]
